Reference: publication PMC3478992, “Cloning and characterization of a novel 2-ketoisovalerate reductase from the beauvericin producer Fusarium proliferatum LF061” (BMC Biotechnology, 2012)

Molecular target: T1, KivRFp (2-ketoisovalerate reductase) (Fusarium proliferatum, UniProt I3VQI5)
T1 construct: full length, 452 residues, 52 kDa, N-terminal His-tag (pET28a), codon-optimised synthetic gene, E. coli BL21(DE3), Ni-NTA purified
Test: spectrophotometric NADPH oxidation at […] nm
Format: biochemical
Conditions: 0.7 mM 2-Kiv, 50 mM sodium phosphate pH 7.0, 35 °C

T1 sequence (I3VQI5 entry or part of it): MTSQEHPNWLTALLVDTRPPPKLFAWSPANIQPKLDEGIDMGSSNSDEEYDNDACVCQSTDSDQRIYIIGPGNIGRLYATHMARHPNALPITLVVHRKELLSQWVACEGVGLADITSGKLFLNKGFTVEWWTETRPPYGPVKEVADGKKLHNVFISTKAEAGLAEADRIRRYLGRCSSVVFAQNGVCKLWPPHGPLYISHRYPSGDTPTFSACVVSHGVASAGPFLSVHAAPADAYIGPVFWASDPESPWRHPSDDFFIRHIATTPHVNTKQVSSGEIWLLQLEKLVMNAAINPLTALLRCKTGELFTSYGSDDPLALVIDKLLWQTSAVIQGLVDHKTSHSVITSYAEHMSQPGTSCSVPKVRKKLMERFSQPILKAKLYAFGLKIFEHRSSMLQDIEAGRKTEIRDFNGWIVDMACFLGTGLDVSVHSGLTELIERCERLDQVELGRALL

Structure (SMILES)	spectrophotometric NADPH oxidation at 340 nm (0.29 mM NADPH)	spectrophotometric NADPH oxidation at 340 nm
CC(C)C(=O)C(=O)O [2-Kiv]	The enzyme exhibited the highest activity towards 2-Kiv as substrate	–
NC(=O)C1=CN([C@@H]2O[C@H](COP(=O)(O)OP(=O)(O)OC[C@H]3O[C@@H](n4cnc5c(N)ncnc54)[C@H](OP(=O)(O)O)[C@@H]3O)[C@@H](O)[C@H]2O)C=CC1 [NADPH]	–	KivRFp showed higher coenzyme specificity with respect to NADPH than NADH
